The results in this text go back to patent US10689387B2, “Crystalline form of (1R,2R)-2-[4-(3-methyl-1H-pyrazol-5-yl)benzoyl]-N-(4-oxo-4,5,6,7-tetrahydropyrazolo[1,5-A]pyrazin-3-yl)cyclohexanecarboxamide” (AstraZeneca AB, priority 2016, dated 2020).

The structures appear in SMILES notation.

This experiment deals with LTB4 production in fresh human whole blood. In words: FLAP Whole Blood Assay (Test B), inhibition of LTB4 production. The format is cell-based. As to conditions: method B: 4 h incubation at 37° C., calcium ionophore A23187 stimulation. How it is done:
FLAP Whole Blood Assay (Test B)
Compounds were tested for the inhibition of LTB4 production in fresh human whole blood obtained by venapuncture using heparin to prevent clotting. 1.5 μL compounds or DMSO carrier were dispensed into the wells of a 96-well deep-well plate in 3-fold dilution series. 500 μL heparnised whole blood was then added followed by incubation at 37° C. for 30 min (method A) or 4 h (method B). 100 μL blood was subsequently transferred in triplicate to pre-dispensed 0.5 μL 2 mM calcium ionophore (calcimycin; A23187) in a second 96-well plate. Following incubation at 37° C. for 20 min, the assays were stopped by adding 10 μL of stop solution (100 mM EGTA, pH 7.4) and the plate was transferred to ice. The plate was centrifuged at 3000 rpm at 4° C. for 10 min and 10 μL plasma was transferred to a fresh 96 well plate containing 90 μL pre-dispensed EIA assay buffer (0.1 M phosphate buffer+0.1% BSA). LTB4 was then measured using reagents from a commercial EIA (Cayman Chemicals). […] Inhibition of LTB4 production was defined as the LTB4 level in the presence of a given concentration of test compound expressed as a % of the LTB4 level in the presence of DMSO. IC50 values were determined by plotting % inhibition versus log compound concentration and using a one site dose response model. […]

Turning to `Cc1cc(-c2ccc(C(=O)[C@@H]3CCCC[C@H]3C(=O)Nc3cnn4c3C(=O)NCC4)cc2)[nH]n1` [Compound (I), (1R,2R)-2-[4-(3-methyl-1H-pyrazol-5-yl)benzoyl]-N-(4-oxo-4,5,6,7-tetrahydropyrazolo[1,5-a]pyrazin-3-yl)cyclohexanecarboxamide], the half-maximal inhibitory concentration (IC50) worked out at 40 nM.

In general, IC50 refers to the concentration that inhibits the measured activity by half.
